Data on seven compounds can be found in article PMC12257397, “Scaffold Hopping Strategy toward New 4‑Aminoquinazolines Active Against Extracellular and Intracellular Mycobacterium tuberculosis” (ACS Medicinal Chemistry Letters, 2025).

In series [1] the test system is M. tuberculosis H37Rv-LP. Also on record: method as in PMID 35262374, PMID 29035551. The note with it: given in Figure 1A; cited from earlier work.
The test system of series [2] is M. tuberculosis H37Rv (Erdman). Also on record: method as in PMID 31511370. Particulars: given in Figure 1A; cited from earlier work.
In series [3] the test system is M. tuberculosis qcrCAB (wt). Also on record: method as in PMID 31511370. Particulars: given in Figure 1A; cited from earlier work.
The nature of series [4]: in vitro. Particulars: human.
Series [5] has as its system M. tuberculosis H37Rv-LP (ATCC 25618). Briefly: microbe, parasite or virus in culture. Type of series: cell-based. The note with it: Mycobacterium tuberculosis, 120 h, concentration inhibiting 90% of growth, 5 days, read-out: MIC parental wild-type strain H37Rv-LP.
The nature of series [6]: in vitro. Particulars: African green monkey.
Series [7] is described as follows: in vitro. The note with it: African green monkey. The source holds these as a separate data set.
In series [8] the test system is M. tuberculosis H37Rv (ATCC 27294). Briefly: MIC by resazurin reduction microplate assay (REMA). Format: cell-based. Particulars: Mycobacterium tuberculosis, converted from μg/mL to μM. (In general: The colour change of resazurin is a common sign of viable cells or microbes.)
Series [9] can be described thus: in vitro. Particulars: human. The source holds these as a separate data set.
Series [10] deals with Mycobacterium smegmatis mc2155. Format: cell-based.
The test system of series [11] is Staphylococcus aureus (ATCC 29213). Briefly: Antimicrobial spectrum MIC, S. aureus. Format: cell-based.
Series [12] relates to Mycobacterium abscessus 103R. Put plainly: Antimicrobial spectrum MIC, M. abscessus. Format: cell-based.
The nature of series [13]: in vitro. Particulars: human. The source holds these as a separate data set.
The test system of series [14] is Mycobacterium avium 2285R (rough). Put plainly: Antimicrobial spectrum MIC, M. avium rough. Type of series: cell-based.
Series [15] relates to H37Rv-LP (ATCC 25618) inside THP-1 cells. Briefly: microbe, parasite or virus in culture. Type of series: cell-based. Particulars: Mycobacterium tuberculosis, 72 hours; for pIC50: growth of H37Rv-LP inside THP-1 cells inhibited by 50%, read-out: Intracellular IC50; for IC90: growth of H37Rv-LP inside THP-1 cells inhibited by 90%, read-out: Intracellular IC90.
Series [16] can be described thus: Microsomal stability, mouse liver microsomes (MLM). Format: in vitro ADME. Particulars: male, BALB/c, pH 7.4; for half-life at 6 μM: mouse liver microsomes, read-out: MLM t1/2. The procedure:
(§1) 1.5. Microsomal stability
(§2) Test compound (6 μM) was incubated at 37 °C with male BALB/c mouse liver microsomes or mixed gender human liver microsomes (Xenotech LLC; 0.5 mg /mL, […] potassium phosphate buﬀer, pH 7.4) and the reaclon started with addilon of excess NADPH (2 mM, pH 7.4). Samples (35 µL) were removed at lme 0, 5, 10, 20, 30, and 60 min and mixed with 35 µL of acetonitrile, methanol, wate r s o l u lon (2:1:1) containing […] internal standard terfenadine and 0.05% v/v acelc acid. The samples were centrifuged at 4000 rpm for 10 min and the supernatant was analyzed using a 1100 HPLC and Single Quad 6120 (Agilent, USA). Compounds were tested in duplic ate, and an exponenlal decay curve ﬁt was used on the ralo of peak area of test compound to internal standard at each lme point to calculate the rate constant (k). The rate of intrinsic clearance (CLint) of each test compound was then calculated using the following equalon: CLint (mL/min/mg) = k x V where V was mL/mg protein. Verapamil (6 μM) was used as a posilve control. Incubalon of each compound with microsomes in the absence of NADPH and analyzed at 0 and 60 min was used as the negalve control.
(§3) The human biological samples were sourced ethically, and their research use was in accord with the terms of the informed consents.
(In general: Liver microsomes are a subcellular fraction often used to study metabolism.)

Series [17] in a line: Microsomal stability, human liver microsomes (HLM). Type of series: in vitro ADME. The note with it: both sexes, pH 7.4; for half-life at 6 μM: human liver microsomes, read-out: HLM t1/2. The protocol: as §1, §2, §3
In series [18] the test system is Mycobacterium avium 2285S (smooth). Put plainly: Antimicrobial spectrum MIC, M. avium smooth. Format: cell-based.
Series [19] deals with Escherichia coli RFM 795. Put plainly: Antimicrobial spectrum MIC, E. coli. Format: cell-based. The note with it: Escherichia coli RFM 795 (lptD mutation).
Series [20] has as its system M. tuberculosis H37Rv-LP (ATCC 25618). Put plainly: ATP depletion assay (BacTiter-Glo). Format: cell-based, Mycobacterium tuberculosis. The note with it: compared to the positive control Q203.

pIC50: −log10 of the molar value. Values after ≈ are worked out from the molar mass of the structure shown. Bounds are passed on as bounds.

Regarding `FC(F)(F)c1ccc(CCNc2cc(-c3ccccn3)nc3ncnn23)cc1` [1 (TAP)], in series [1], the “MIC H37Rv-LP” value was 1.4 µM (≈ 0.538 µg/mL).
Turning to `CCc1nc2ccc(C)cc2n1CCCNc1ccccc1` [2 (FABA)], in series [1], the “MIC H37Rv-LP” value is 0.056 µM (≈ 0.0164 µg/mL).
A word on the pIC50: it is the IC50 on a negative log10 scale, so that one unit is a factor of ten. `CCc1nc(NCCCc2ccccc2)c2cc(C)sc2n1` [3 (CWHM-1023)]: the pIC50 in series [2] is 7.38; in [3], 7.60.
With `Cc1nc(NCCc2ccccc2)c2cc(I)ccc2n1` [9d], the CC50 at 72 h in series [4] (CC50 HepG2+Gal) worked out at 5.1 µM; in [4] (CC50 HepG2+Glu) it was 10.9 µM; in [6], 11.7 µM; in [7] it was 11.7 µM. For the same compound, the MIC turned out to be 0.95 µM (≈ 0.37 µg/mL) in series [5] and 3.2 µM (≈ 1.25 µg/mL) in [8].
In general, IC90 refers to the point of the concentration-response curve where the effect stands at 90%. As usually defined, the microsomal CLint is the rate of metabolic loss divided by the concentration. A word on the fraction remaining: it is what is left of the initial amount, in per cent. `COc1ccc2nc(C)nc(NCCCc3ccccc3)c2c1` [18b]: the CC50 at 72 h is 17 µM in [9], 11 µM in series [4] (CC50 HepG2+Gal), 13.9 µM in series [4] (CC50 HepG2+Glu) and above 20 µM in [13]. The “CIM mc2155” value in [10] was above 32.5 µM. Moreover, the “CIM 29213” value in series [11] is recorded as above 100 µM. Moreover, the “CIM 103R” value in series [12] was above 100 µM. Further, the “CIM 2285R” value in [14] is recorded as above 100 µM. Also, the MIC in series [5] was 1.5 µM (≈ 0.461 µg/mL); in series [8], 4.1 µM (≈ 1.26 µg/mL). Further, the pIC50 in series [15] was 6.08. Also, in series [15], the IC90 came out at 1.9 µM. The microsomal CLint at 6 μM in series [16] (mouse, microsomes) came out at 530 µL/min/mg; in [17] (human, microsomes), 252 µL/min/mg. This compound registered an amount remaining at 10 min, 6 μM in series [16] (mouse, microsomes) of 7%. Also, the half-life at 6 μM came to 2.6 min in series [16] and 5.5 min in series [17]. The fraction remaining at 20 min, 6 μM in series [17] (human, microsomes) is 8%. For the same compound, the “CIM 2285S” value in [18] is given as above 100 µM. For the same compound, in series [19], the “CIM RFM 795” value is on record as 54 µM.
In the case of `Cc1nc(NCCCc2ccccc2)c2cc(Br)ccc2n1` [18c], the CC50 at 72 h was found to be 13.2 µM in series [9], 9.7 µM in series [4] (CC50 HepG2+Gal), 19.1 µM in series [4] (CC50 HepG2+Glu) and 13.8 µM in series [13]. For the same compound, in [10], the “CIM mc2155” value was above 56.1 µM. The “CIM 29213” value in series [11] was above 100 µM. Besides, the “CIM 103R” value in series [12] is above 100 µM. Moreover, the ATP depletion profile result in series [20] is listed as “none of the selected molecules produced a significant ATP depletion profile”. In series [14], the “CIM 2285R” value is listed as above 100 µM. Besides, the MIC came out at 0.28 µM (≈ 0.0998 µg/mL) in series [5] and 0.45 µM (≈ 0.16 µg/mL) in series [8]. Besides, in series [15], the pIC50 was 6.80. In addition, the IC90 in [15] came to 0.45 µM. Further, the microsomal CLint at 6 μM was found to be 354 µL/min/mg in [16] (mouse, microsomes) and 184 µL/min/mg in [17] (human, microsomes). The compound also returned an amount remaining at 20 min, 6 μM in series [16] (mouse, microsomes) of 2%. The half-life at 6 μM in [16] stood at 3.9 min; in series [17], 7.5 min. In addition, the share remaining at 0.5 h, 6 μM in series [17] (human, microsomes) stood at 6%. In series [18], the “CIM 2285S” value is given as above 100 µM. The “CIM RFM 795” value in [19] was above 100 µM.
`Cc1nc(NCCCc2ccccc2)c2cc(I)ccc2n1` [18d]: the CC50 at 72 h in series [9] is 18.3 µM; in series [4] (CC50 HepG2+Gal) it was 13 µM; in [4] (CC50 HepG2+Glu), 20.3 µM; in [13], above 20 µM. In addition, the “CIM mc2155” value in series [10] is given as above 12.4 µM. Also, the “CIM 29213” value in [11] is recorded as above 100 µM. Further, the “CIM 103R” value in [12] was above 100 µM. The “CIM 2285R” value in series [14] is listed as above 100 µM. Further, the values for the MIC in series [5] and in series [8] were 0.58 µM (≈ 0.234 µg/mL) and 1.6 µM (≈ 0.645 µg/mL), respectively. The negative logarithm of the IC50 (pIC50) in [15] was 6.33. Besides, in [15], the IC90 came to 1.2 µM. For the same compound, the microsomal CLint at 6 μM was found to be 202 µL/min/mg in [16] (mouse, microsomes) and 243 µL/min/mg in series [17] (human, microsomes). Besides, the amount remaining at 5 min, 6 μM in series [16] (mouse, microsomes) came to 63%. Also, the half-life at 6 μM is 6.9 min in [16] and 5.7 min in series [17]. The compound also returned a fraction remaining at 20 min, 6 μM in series [17] (human, microsomes) of 9%. Besides, the “CIM 2285S” value in series [18] is above 100 µM. Further, the “CIM RFM 795” value in [19] was above 100 µM.
